The text below walks through data of patent US20220331416A1, “COMBINED EXPRESSION OF A CHIMERIC CD3 FUSION PROTEIN AND AN ANTI-CD3-BASED BISPECIFIC T CELL ACTIVATING ELEMENT” (BIOTHEUS (SUZHOU) CO., LTD., priority 2019, published 2022).

Series [1] relates to CAIX CAB-T co-cultured with CAIX+MDA-MB231. The series is described as follows: Dasatinib inhibition of cytokine release of CAIX CAB-T. Format: cell-based. To be noted: activated CAIX CAB-T, co-cultured overnight.
In series [2] the test system is HER2 CAB-T co-cultured with SKBR3. The series is described as follows: Dasatinib inhibition of killing activity of HER2 CAB-T (LDH). To be noted: E:T 5:1, over 12 hours.
The test system is the same in series [3]. The series is described as follows: Dasatinib inhibition of cytokine release of HER2 CAB-T. The format is cell-based. To be noted: activated HER2 CAB-T, co-cultured overnight.
In series [4] the test system is CAIX CAB-T co-cultured with CALX+MDA-MB231. Conditions: E:T 5:1, over 12 hours.
Description: Briefly, 5×10^4 effector cells (CAIX CAB-T or HER2 CAB-T) and 1×10^4 target cells (CALX+MDA-MB231 or SKBR3) were co-cultured with a gradient concentration of dasatinib (100 nM, 50 nM, 25 nM, 12.5 nM, 6.25 nM, 0 nM), Cytotoxicity of CAB-T to its target cells were determined in 2-hour intervals over a period of 12 hours [effector-to-target cell (E:T) ratio, 5:1].

For the compound `Cc1nc(Nc2ncc(C(=O)Nc3c(C)cccc3Cl)s2)cc(N2CCN(CCO)CC2)n1` [dasatinib], the “dose at which IFNγ secretion is inhibited effectively” value in series [1] and in series [3] was “around 25 nM” each time. Moreover, the “dose at which IL-2 secretion is inhibited effectively” value in series [1] and in series [3] was “around 25 nM” throughout. Moreover, the “dose at which cytotoxicity to target cells is inhibited effectively” value in series [2] and in series [4] was “around 50 nM” throughout.
